Experimental data reported in US7700644B2, “Isoflavonoid dimers” (Novogen Research Pty Ltd, priority 2005, dated 2010).

Columns and labels:
[1] = test system: HCT-15 (Colorectal); assay: In vitro cytotoxicity, MTT proliferation assay, HCT-15; assay type: cell-based, human; conditions: Colorectal HCT-15
Experimental: (§1) The human pancreatic cancer cell line, HPAC (CRL-2119) was routinely cultured in 1:1 mixture DMEM (Sigma) plus Ham's F12 (Sigma) medium containing HEPES (15 mM), insulin (0.002 mg/ml), transferrin (0.005 mg/ml), hydrocortisone, (40 ng/ml), epidermal growth factor (10 ng/ml). The ovarian cancer cell line CP70 was obtained as a gift from Dr. Gil Mor (Yale University) and cultured in a 1:1 mixture DMEM plus Ham's F12 medium, and SKOV-3 was purchased from ATCC and cultured in McCoy's 5a medium. The breast cancer cell line MDA-MB-468 cultured in Leibovitz's L-15 medium.
(§2) All cultures were supplemented with 10% FCS(CSL, Australia), penicillin (100 U/ml), streptomycin ([…]), L-glutamine (2 mM) and sodium bicarbonate (1.2 g/L), and cultured at 37° C. in a humidified atmosphere of 5% CO2. All remaining cell lines were purchased from ATCC (Maryland, USA) except where noted.
(§3) IC50 values were determined for each cell line. Cells were seeded in 96-well plates at an appropriate cell density as determined from growth kinetics analysis. NFFs were cultured for 5 days and RK-13s for 24 hrs in the absence and presence of the test compounds. Cell proliferation was assessed after the addition of 20 μl of 3-4,5 dimethylthiazol-2,5-diphenyl tetrazolium bromide (MTT, 2.5 mg/ml in PBS, Sigma) for 3-4 hrs at 37° C. according to manufacturer's instructions. IC50 values were calculated from semi-log plots of % of control proliferation on the y-axis against log dose on the x-axis.

[2] = test system: LNCaP (Prostate); assay: In vitro cytotoxicity, MTT proliferation assay, LNCaP; assay type: cell-based, human
Experimental: as §1, §2, §3

[3] = test system: MCF-7 (Breast); assay: In vitro cytotoxicity, MTT proliferation assay, MCF-7; assay type: cell-based, human; conditions: Breast MCF-7
Experimental: as §1, §2, §3

[4] = test system: Neonatal foreskin fibroblasts (NFF); assay: Normal cell toxicity, MTT proliferation assay, NFF; assay type: cell-based, human; conditions: NFF fibroblast, cultured 5 days, MTT
Experimental: Neonatal foreskin fibroblasts (NFF) were a gift from Dr. Peter Parsons (Queensland Institute of Medical Research). RK-13 (rabbit kidney) cells were obtained from Miller Whalley (Macquarie University). Both cell types were cultured in RPMI supplemented with 10% FCS (CSL, Australia), penicillin (100 U/ml), streptomycin ([…]), L-glutamine (2 mM) and sodium bicarbonate (1.2 g/L), and cultured at 37° C. in a humidified atmosphere of 5% CO2.
as §3
Duplicate cytotoxicity assays against NFF cells were conducted with dehydroequol (DHE), 4,9-dihydroxy-14,15-dimethoxy-12a-(3′,4′-dimethoxyphenyl)-3,10-dimethyl-2,11-dioxa-(1H,12H)-6b,6c,12a,16b-tetrahydronaphtho[1,2-g]chrysene (2) from Example 6.1 and cisplatin.

[5] = test system: HT-29 (Colorectal); assay: In vitro cytotoxicity, MTT proliferation assay, HT-29; assay type: cell-based, human; conditions: Colorectal HT-29
Experimental: as §1, §2, §3

[6] = test system: NCI-H460 (Lung); assay: In vitro cytotoxicity, MTT proliferation assay, NCI-H460; assay type: cell-based, human
Experimental: as §1, §2, §3

[7] = test system: A2780 (Ovarian); assay: In vitro cytotoxicity, MTT proliferation assay, A2780; assay type: cell-based, human
Experimental: as §1, §2, §3

[8] = test system: human pancreatic cancer cell line, HPAC (CRL-2119); assay: In vitro cytotoxicity, MTT proliferation assay, CRL-2119; assay type: cell-based; conditions: Pancreatic CRL-2119
Experimental: as §1, §2, §3

[9] = test system: PC3 (Prostate); assay: In vitro cytotoxicity, MTT proliferation assay, PC3; assay type: cell-based, human
Experimental: as §1, §2, §3

[10] = test system: ovarian cancer cell line CP70; assay: In vitro cytotoxicity, MTT proliferation assay, CP70; assay type: cell-based, human
Experimental: as §1, §2, §3

[11] = test system: DU145 (Prostate); assay: In vitro cytotoxicity, MTT proliferation assay, DU145; assay type: cell-based, human
Experimental: as §1, §2, §3

[12] = test system: MM200 (Melanoma); assay: In vitro cytotoxicity, MTT proliferation assay, MM200; assay type: cell-based, human
Experimental: as §1, §2, §3

[13] = test system: HTB-138 (Glioma); assay: In vitro cytotoxicity, MTT proliferation assay, HTB-138; assay type: cell-based, human; conditions: Glioma HTB-138
Experimental: as §1, §2, §3

[14] = test system: MM96L (Melanoma); assay: In vitro cytotoxicity, MTT proliferation assay, MM96L; assay type: cell-based, human
Experimental: as §1, §2, §3

[15] = test system: breast cancer cell line MDA-MB-468; assay: In vitro cytotoxicity, MTT proliferation assay, MDA-MB-468; assay type: cell-based, human; conditions: Breast MDA-MB-468
Experimental: as §1, §2, §3

[16] = test system: SKOV-3 (Ovarian); assay: In vitro cytotoxicity, MTT proliferation assay, SKOV-3; assay type: cell-based, human; conditions: Ovarian SKOV-3
Experimental: as §1, §2, §3

[17] = test system: UV irradiation-induced skin oedema; assay: Murine model of UV irradiation-induced skin oedema; assay type: in vivo, female Skh:hr-1 albino mice; conditions: for Change in skin thickness (mean ± SD, ×0.01 mm): dorsal skin fold, topical 0.2 ml of 20 μM at 30 min, 2 h, 4 h
Text: Groups of 4-5 female Skh:hr-1 albino mice were irradiated with 1×3 MEdD (minimal edematous dose) of solar simulated UV radiation (SSUV). Solar-simulated ultraviolet radiation (SSUV) was provided by a planar bank of 6 UVA tube (Hitachi 40W F40T 10/BL, black light) and one UVB tube (Philips TL 40W/12RS) with radiation filtered through a sheet of 0.125 mm cellulose acetate (Eastman Chemical Products, Kingport, Tenn., USA) to give 2.96×10-4W/cm2 UVA and 1.59×10-5W/cm2 UVB. The distance of the UV lamp from the irradiance table surface was approximately 20 cm and temperature was controlled with an electric fan. During irradiation, the cages were rotated below the lights to reduce the variation in radiation intensity in different positions.
Either test compound (0.2 ml of a 20 μM solution) or vehicle (propylene glycol/ethanol/water 1:2:1) was applied to the irradiated dorsal skin at 30 min, 2 h and 4 h post-irradiation. Dorsal skin fold measurements were made with a spring micrometer prior to and at 24 hr and 48 h post-UV exposure. The difference in skin thickness pre- and post-exposure to UVR was calculated for each mouse, and the differences examined between test compound and vehicle control were analysed using an unpaired two-tailed t test.

[18] = test system: splenocytes; assay: Murine splenocyte proliferation with mitogens (MTT), 3 day incubation with compound; assay type: cell-based, Male Skh-1 (hairless) mice
Experimental: Male Skh-1 (hairless) mice, six weeks old were killed by cervical dislocation. Single cell suspensions were made from their spleens and erythrocytes were lysed in buffer (0.14M NH4Cl, 17 mM Tris, pH 7.2). The remaining splenocytes were cultured in RPMI-1640 (Gibco) supplemented with 10% (v:v) FBS, 200 mM L-glutamine, penicillin/streptomycin and […] 2-mercaptoethanol. […] Samples were analysed after a 3 day incubation at 37° C. in 5% CO2 in air. To assess cell numbers, methylthiazoletetrazolium (MTT) was added to each well, incubated for a further 4 hrs and then colour developed with 0.04N HCl in isopropanol (Mosmann 1983). Plates were read at 570 nm and 630 nm. The compounds were examined several times using different mice. For each assay, the effect of test compound was compared with that of vehicle control, and the results compared using a student's t test (Prism). Statistically significant difference was determined to have occurred when p<0.05.

[19] = test system: TNFα synthesis; assay: TNFα synthesis in human monocytes incubated with LPS; assay type: cell-based; conditions: LPS 200 ng/mL, 18 hrs
Experimental: (§4) Human peripheral blood monocytes (from three separate individuals) were isolated from buffy coats by lymphoprep gradient separation of mononuclear cells followed by counter-current centrifugal elutriation (Demasi et al. 2000). The test compounds were dissolved in DMSO and added to fresh monocytes After 30 min, LPS was added to achieve a final concentration of 200 ng/mL. After incubation for 18 hrs at 37° C. in 5% CO2, supernatants were removed and PGE2, TXB2 (the stable hydrolysis product of TXA2) and TNFα production were measured by radioimmunoassay (RIA).

[20] = test system: TXB2 synthesis; assay: TXB2 synthesis in human monocytes incubated with LPS; assay type: cell-based; conditions: LPS 200 ng/mL, 18 hrs, dose responsive
Experimental: as §4

[21] = test system: PGE2 synthesis; assay: PGE2 synthesis in human monocytes incubated with LPS; assay type: cell-based; conditions: LPS 200 ng/mL, 18 hrs, dose responsive
Experimental: as §4

[22] = test system: unstimulated splenocytes; assay: Murine splenocytes, 24 hour pre-incubation with compound then mitogenic stimulation; assay type: cell-based, Male Skh-1 (hairless) mice; conditions: 10 μM
Experimental: Male Skh-1 (hairless) mice, six weeks old were killed by cervical dislocation. Single cell suspensions were made from their spleens and erythrocytes were lysed in buffer (0.14M NH4Cl, 17 mM Tris, pH 7.2). The remaining splenocytes were cultured in RPMI-1640 (Gibco) supplemented with 10% (v:v) FBS, 200 mM L-glutamine, penicillin/streptomycin and […] 2-mercaptoethanol. Splenocytes were added to triplicate wells containing either concanavalin A (ConA, Sigma-Aldrich—0.4 μg/well), lipopolysaccharide (LPS, Sigma-Aldrich—1 μg/well) or no mitogen, as well as 10 μM of either Compound 1 or Compound 2 in DMSO, or DMSO alone. Samples were analysed after a 3 day incubation at 37° C. in 5% CO2 in air. To assess cell numbers, methylthiazoletetrazolium (MTT) was added to each well, incubated for a further 4 hrs and then colour developed with 0.04N HCl in isopropanol (Mosmann 1983). Plates were read at 570 nm and 630 nm. The compounds were examined several times using different mice. For each assay, the effect of test compound was compared with that of vehicle control, and the results compared using a student's t test (Prism). Statistically significant difference was determined to have occurred when p<0.05.
Another assay examined the effect pre-incubating unstimulated splenocytes with test compounds at 10 μM for 24 hours, removing the compounds and then assessing their ability to respond to mitogenic stimulation as described for the previous assay. Cell numbers were assessed after the 24 hr pre-incubation using MTT, and equal numbers of cells/well plated into 96 well plates as usual.

[23] = test system: PGE2; assay: PGE2 in murine macrophages (RAW 264.7) stimulated with LPS; assay type: cell-based, mouse; conditions: RAW 264.7, LPS 50 ng/ml, 16 hrs, dose responsive
Experimental: (§5) The mouse macrophage cell line RAW 264.7 was cultured in DMEM supplemented with FCS, 2 mM glutamine and 50 U/ml penicillin/streptomycin. Subconfluent cells were detached from the flask by gentle scraping and 24-well plates seeded at 5×10^5 cells per well and allowed to adhere for 1 hr. Cells were then treated either test compounds (in 0.025% DMSO) or vehicle alone, and incubated for 1 hr. LPS 50 ng/ml (LPS —Sigma-Aldrich) was then added. After incubation for 16 hrs, culture media was collected and stored at −80° C. for ecosanoid and cytokine measurements using enzyme immunometric assays (PGE2 and TXB2—Cayman Chemical and TNFα—Becton Dickinson).

[24] = test system: TXB2; assay: TXB2 in murine macrophages (RAW 264.7) stimulated with LPS; assay type: cell-based, mouse; conditions: RAW 264.7, LPS 50 ng/ml, 16 hrs, dose responsive
Experimental: as §5

N.N.[Cl][Pt][Cl] [Cisplatin, cis-diamminedichloroplatinum]
IC50 [1]: 130 ± 39 µM
IC50 [2]: > 10 µM
IC50 [3]: 3.69 µM
IC50 [4]: 9.85 ± 5 µM
IC50 [5]: 22.7 ± 35 µM
IC50 [6]: 22.3 µM
IC50 [7]: 2.1 µM
IC50 [8]: 9.36 µM
IC50 [9]: 2.11 µM
IC50 [10]: 10.3 µM
IC50 [11]: 2.07 µM
IC50 [12]: 8.82 µM
IC50 [13]: 42.3 µM
IC50 [14]: 4.6 µM
IC50 [15]: 0.58 µM
IC50 [16]: 5.4 µM

COc1ccc(C23COc4cc(O)ccc4C2C2c4ccc(O)cc4OCC2c2cc(OC)c(OC)cc23)cc1OC (stereo not shown) [Cpd. 1, 4,9-Dihydroxy-14,15-dimethoxy-12a-(3′,4′-dimethoxyphenyl)-2,11-dioxa-(1H,12H)-6b,6c,12a,16b-tetrahydronaphtho[1,2-g]chrysene]
inhibition of skin oedema ([17]; 24 hrs post-irradiation): significantly inhibited
Change in skin thickness (mean ± SD, ×0.01 mm) ([17]; 24 hrs post-irradiation, vehicle 78 ± 23): 51 ± 14 ×0.01 mm
Change in skin thickness (mean ± SD, ×0.01 mm) ([17]; 48 hrs post-irradiation, vehicle 147 ± 37): 117 ± 20 ×0.01 mm
effect on B cell proliferation ([18]; 10 μM, LPS, 3 day incubation): no effect
enhancement of proliferation of unstimulated splenocytes ([18]; 10 μM, no mitogen, significant in 5/6 assays): 25-33%
inhibition at 10 µM ([18]; Mus musculus, Splenocyte, 72 h, 10 μM, ConA, 3 day incubation, significant in 4/6 assays, read-out: inhibition of T cell proliferation): 14 to 19%
proliferation compared with vehicle control ([18]; higher concentrations (than 10 μM), regardless of mitogenic stimulation): reduced proliferation
effect on induction of TNFα [19]: inhibited
effect on TXB2 synthesis [20]: inhibited
effect on PGE2 synthesis [21]: induced
Splenocyte viability following three days' culture in the absence of mitogen [22]: not affected
reduction in cell numbers compared with vehicle alone [22]: 73%
proliferative response to ConA after pre-incubation ([22]; compound removed): no effect
effect on PGE2 [23]: induced
effect on TXB2 [24]: inhibited
